Each compound was assayed on Smad2/Smad3 phosphorylation (assay: Phospho-Smad2/3 Inhibition Assay (western blot), Panc-1). Settings: at 10 μM, Panc-1 pancreatic cancer cell line; starred symbols = activation.
Format: cell-based, human
Outline: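 Panc-1 cells (KRas G12D), starved overnight in 0.5% FBS, treated 3 h at 37° C with compound at 10 μM final (0.3% DMSO) or serial dilutions for IC50, then stimulated with 10 ng/ml TGF-b1 for 1 h. Phospho-Smad2 (Ser465/467) and phospho-Smad3 (Ser423/425) detected by western blot.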
For COc1cccnc1Nc1nc(-c2nccn2C)nn2cc(-c3ccn(C(C)C)n3)c(C)c12 [Compound 89, 6-(1-Isopropyl-1H-pyrazol-3-yl)-N-(3-methoxypyridin-2-yl)-5-methyl-2-(1-methyl-1H-imidazol-2-yl)pyrrolo[2,1-f][1,2,4]triazin-4-amine], the “% inh of Smad2/3 phosphorylation in Panc-1” value was “C* (C* = 46-75% activation)”.
In the case of Cc1c(-c2ccn(C(C)C)n2)cn2nc(-c3nccn3C)nc(Nc3cn(C(C)C)nn3)c12 [Compound 78, N-(1-Isopropyl-1H-1,2,3-triazol-4-yl)-6-(1-isopropyl-1H-pyrazol-3-yl)-5-methyl-2-(1-methyl-1H-imidazol-2-yl)pyrrolo[2,1-f][1,2,4]triazin-4-amine], the “% inh of Smad2/3 phosphorylation in Panc-1” value is reported as “A (A = 1-25% inhibition)”.
With Cc1c(-c2ccn(C(C)C)n2)cn2nc(-c3nccn3C)nc(Nc3nnc(C4CC4)[nH]3)c12 [Compound 81, N-(5-Cyclopropyl-4H-1,2,4-triazol-3-yl)-6-(1-isopropyl-1H-pyrazol-3-yl)-5-methyl-2-(1-methyl-1H-imidazol-2-yl)pyrrolo[2,1-f][1,2,4]triazin-4-amine] the “% inh of Smad2/3 phosphorylation in Panc-1” value was “A* (A* = 1-25% activation)”.
In the case of COc1cc(Nc2nc(-c3nccn3C)nn3cc(-c4ccn(C(C)C)n4)c(C)c23)ccn1 [Compound 87, 6-(1-Isopropyl-1H-pyrazol-3-yl)-N-(2-methoxypyridin-4-yl)-5-methyl-2-(1-methyl-1H-imidazol-2-yl)pyrrolo[2,1-f][1,2,4]triazin-4-amine], the “% inh of Smad2/3 phosphorylation in Panc-1” value is reported as “B* (B* = 26-45% activation)”.
COc1ncc(Nc2nc(-c3nccn3C)nn3cc(-c4ccn(C(C)C)n4)c(C)c23)cn1 [Compound 80, 6-(1-Isopropyl-1H-pyrazol-3-yl)-N-(2-methoxypyrimidin-5-yl)-5-methyl-2-(1-methyl-1H-imidazol-2-yl)pyrrolo[2,1-f][1,2,4]triazin-4-amine] was tested, and the “% inh of Smad2/3 phosphorylation in Panc-1” value was “B* (B* = 26-45% activation)”.
With Cc1c(-c2ccn(C(C)C)n2)cn2nc(-c3nccn3C)nc(Nc3cnn(C(C)C)n3)c12 [Compound 77, 6-(1-Isopropyl-1H-pyrazol-3-yl)-N-(2-isopropyl-2H-1,2,3-triazol-4-yl)-5-methyl-2-(1-methyl-1H-imidazol-2-yl)pyrrolo[2,1-f][1,2,4]triazin-4-amine] the “% inh of Smad2/3 phosphorylation in Panc-1” value was “C (C = 46-75% inhibition)”.
Cc1c(-c2ccn(C(C)C)n2)cn2nc(-c3nccn3C)nc(Nc3ncc(C4CC4)o3)c12 [Compound 90, 5-Cyclopropyl-N-(6-(1-isopropyl-1H-pyrazol-3-yl)-5-methyl-2-(1-methyl-1H-imidazol-2-yl)pyrrolo[2,1-f][1,2,4]triazin-4-yl)oxazol-2-amine] was tested, and the “% inh of Smad2/3 phosphorylation in Panc-1” value was “C* (C* = 46-75% activation)”.
COc1ncncc1Nc1nc(-c2nccn2C)nn2cc(-c3ccn(C(C)C)n3)c(C)c12 [Compound 88, 6-(1-Isopropyl-1H-pyrazol-3-yl)-N-(4-methoxypyrimidin-5-yl)-5-methyl-2-(1-methyl-1H-imidazol-2-yl)pyrrolo[2,1-f][1,2,4]triazin-4-amine] was tested, and the “% inh of Smad2/3 phosphorylation in Panc-1” value was “C* (C* = 46-75% activation)”.
In the case of COc1ncccc1Nc1nc(-c2nccn2C)nn2cc(-c3ccn(C(C)C)n3)c(C)c12 [Compound 85, 6-(1-Isopropyl-1H-pyrazol-3-yl)-N-(2-methoxypyridin-3-yl)-5-methyl-2-(1-methyl-1H-imidazol-2-yl)pyrrolo[2,1-f][1,2,4]triazin-4-amine], the “% inh of Smad2/3 phosphorylation in Panc-1” value is reported as “D (D = 76-100% inhibition)”.
In the case of COc1cnc(Nc2nc(-c3nccn3C)nn3cc(-c4ccn(C(C)C)n4)c(C)c23)cn1 [Compound 83, 6-(1-Isopropyl-1H-pyrazol-3-yl)-N-(5-methoxypyrazin-2-yl)-5-methyl-2-(1-methyl-1H-imidazol-2-yl)pyrrolo[2,1-f][1,2,4]triazin-4-amine], the “% inh of Smad2/3 phosphorylation in Panc-1” value is reported as “B* (B* = 26-45% activation)”.
COCCO[C@H]1C[C@H](Nc2nc(-c3nccn3C)nn3cc(-c4ccn(C(C)C)n4)c(C)c23)C1 [Compound 92, 6-(1-Isopropyl-1H-pyrazol-3-yl)-N-((1r,3r)-3-(2-methoxyethoxy)cyclobutyl)-5-methyl-2-(1-methyl-1H-imidazol-2-yl)pyrrolo[2,1-f][1,2,4]triazin-4-amine] was tested, and the “% inh of Smad2/3 phosphorylation in Panc-1” value was “A* (A* = 1-25% activation)”.
In the case of Cc1c(-c2ccn(C(C)C)n2)cn2nc(-c3nccn3C)nc(Nc3ccn(C4CC4)n3)c12 [Compound 84, N-(1-Cyclopropyl-1H-pyrazol-3-yl)-6-(1-isopropyl-1H-pyrazol-3-yl)-5-methyl-2-(1-methyl-1H-imidazol-2-yl)pyrrolo[2,1-f][1,2,4]triazin-4-amine], the “% inh of Smad2/3 phosphorylation in Panc-1” value is reported as “C* (C* = 46-75% activation)”.
For CCc1nc(Nc2nc(-c3nccn3C)nn3cc(-c4ccn(C(C)C)n4)c(C)c23)nn1C [Compound 76, N-(5-Ethyl-1-methyl-1H-1,2,4-triazol-3-yl)-6-(1-isopropyl-1H-pyrazol-3-yl)-5-methyl-2-(1-methyl-1H-imidazol-2-yl)pyrrolo[2,1-f][1,2,4]triazin-4-amine], the “% inh of Smad2/3 phosphorylation in Panc-1” value was “B (B = 26-45% inhibition)”.
In the case of Cc1c(-c2ccn(C(C)C)n2)cn2nc(-c3nccn3C)nc(Nc3cc4n(n3)CCO4)c12 [Compound 91, N-(6-(1-Isopropyl-1H-pyrazol-3-yl)-5-methyl-2-(1-methyl-1H-imidazol-2-yl)pyrrolo[2,1-f][1,2,4]triazin-4-yl)-2,3-dihydropyrazolo[5,1-b]oxazol-6-amine], the “% inh of Smad2/3 phosphorylation in Panc-1” value is reported as 0 (0 = 0% inhibition).
With COc1nccc(Nc2nc(-c3nccn3C)nn3cc(-c4ccn(C(C)C)n4)c(C)c23)n1 [Compound 86, 6-(1-Isopropyl-1H-pyrazol-3-yl)-N-(2-methoxypyrimidin-4-yl)-5-methyl-2-(1-methyl-1H-imidazol-2-yl)pyrrolo[2,1-f][1,2,4]triazin-4-amine] the “% inh of Smad2/3 phosphorylation in Panc-1” value was “B* (B* = 26-45% activation)”.
In the case of COCc1csc(Nc2nc(-c3nccn3C)nn3cc(-c4ccn(C(C)C)n4)c(C)c23)n1 [Compound 79, N-(6-(1-Isopropyl-1H-pyrazol-3-yl)-5-methyl-2-(1-methyl-1H-imidazol-2-yl)pyrrolo[2,1-f][1,2,4]triazin-4-yl)-4-(methoxymethyl)thiazol-2-amine], the “% inh of Smad2/3 phosphorylation in Panc-1” value is reported as “B* (B* = 26-45% activation)”.
In the case of Cc1c(-c2ccn(C(C)C)n2)cn2nc(-c3nccn3C)nc(Nc3noc(C4CC4)n3)c12 [Compound 75, 5-Cyclopropyl-N-(6-(1-isopropyl-1H-pyrazol-3-yl)-5-methyl-2-(1-methyl-1H-imidazol-2-yl)pyrrolo[2,1-f][1,2,4]triazin-4-yl)-1,2,4-oxadiazol-3-amine], the “% inh of Smad2/3 phosphorylation in Panc-1” value is reported as “A (A = 1-25% inhibition)”.

These compounds were tested on JNK phosphorylation (assay: JNK Activation Assay (western blot), Panc-1). Settings: at 10 μM, Panc-1 pancreatic cancer cell line; starred symbols = activation.
Format: cell-based, human
Outline: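 KRas G12C Panc-1 cells treated 6 h at 37 °C with compound at 10 μM (0.3% DMSO), or serial dilutions for IC50. In Method 1 cells were serum-starved overnight (0.5% FBS) then stimulated with 1.5 ng/ml EGF for 15 min; Method 2 used 10% FBS without stimulation. Phospho-JNK (Thr183/Tyr185) measured by western blot.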
With COC[C@@H]1CC[C@@H]1CNc1nc(-c2nccn2C)nn2cc(-c3ccn(C(C)C)n3)c(C)c12 (racemic) [Compound 3, rac 6-(1-Isopropyl-1H-pyrazol-3-yl)-N-(((1S,2R)-2-(methoxymethyl)cyclobutyl)methyl)-5-methyl-2-(1-methyl-1H-imidazol-2-yl)pyrrolo[2,1-f][1,2,4]triazin-4-amine] the “% inh of JNK in Panc-1” value was “H* (H* ≥ 100% activation)”.
For COCC1CCN(c2nc(-c3nccn3C)nn3cc(-c4ccn(C(C)C)n4)c(C)c23)C1 (racemic) [Compound 2, rac 6-(1-Isopropyl-1H-pyrazol-3-yl)-4-(3-(methoxymethyl)pyrrolidin-1-yl)-5-methyl-2-(1-methyl-1H-imidazol-2-yl)pyrrolo[2,1-f][1,2,4]triazine], the “% inh of JNK in Panc-1” value was “F* (F* = 31-74% activation)”.
In the case of COc1cccc(-c2cn3nc(-c4nccn4C)nc(N[C@@H]4CC[C@@H](OC)C4)c3c2-c2ccccc2)c1Cl.Cl (racemic) [Compound 34, rac 6-(2-Chloro-3-methoxyphenyl)-N-((1R,3R)-3-methoxycyclopentyl)-2-(1-methyl-1H-imidazol-2-yl)-5-phenylpyrrolo[2,1-f][1,2,4]triazin-4-amine hydrochloride], the “% inh of JNK in Panc-1” value is reported as “H (H = 100% inhibition)”.
COc1cc(Nc2nc(-c3nccn3C)nn3cc(-c4ccn(C(C)C)n4)c(-c4ccccc4)c23)ncn1 [Compound 22, 6-(1-Isopropyl-1H-pyrazol-3-yl)-N-(6-methoxypyrimidin-4-yl)-2-(1-methyl-1H-imidazol-2-yl)-5-phenylpyrrolo[2,1-f][1,2,4]triazin-4-amine] was tested, and the “% inh of JNK in Panc-1” value was “H* (H* ≥ 100% activation)”.
COCC1CCN(c2nc(-c3nccn3C)nn3cc(-c4ccn(C(C)C)n4)c(-c4ccccc4)c23)C1.Cl (racemic) [Compound 19, rac 6-(1-Isopropyl-1H-pyrazol-3-yl)-4-(3-(methoxymethyl)pyrrolidin-1-yl)-2-(1-methyl-1H-imidazol-2-yl)-5-phenylpyrrolo[2,1-f][1,2,4]triazine hydrochloride salt] was tested, and the “% inh of JNK in Panc-1” value was “F* (F* = 31-74% activation)”.
In the case of COC1CCCN(c2nc(-c3nccn3C)nn3cc(-c4ccn(C(C)C)n4)c(-c4ccccc4)c23)C1 (racemic) [Compound 21, rac 6-(1-Isopropyl-1H-pyrazol-3-yl)-4-(3-methoxypiperidin-1-yl)-2-(1-methyl-1H-imidazol-2-yl)-5-phenylpyrrolo[2,1-f][1,2,4]triazine], the “% inh of JNK in Panc-1” value is reported as “H* (H* ≥ 100% activation)”.
CO[C@H]1CC[C@@H](Nc2nc(-c3nccn3C)nn3cc(-c4ccn(C(C)C)n4)c(C)c23)C1 (racemic) [Compound 1, rac 6-(1-Isopropyl-1H-pyrazol-3-yl)-N-((1R,3S)-3-methoxycyclopentyl)-5-methyl-2-(1-methyl-1H-imidazol-2-yl)pyrrolo[2,1-f][1,2,4]triazin-4-amine] was tested, and the “% inh of JNK in Panc-1” value was “F* (F* = 31-74% activation)”.
